Experimental data: patent publication US20260015358A1, “BICYCLIC DERIVATIVES, COMPOSITIONS AND USES THEREOF” (Danatlas Pharmaceuticals Co., Ltd., priority 2023, published 2026)

Key:
[1] = target: T1, WRN [UniPro: Q14191 (WRN_HUMAN), N500-C946] (Homo sapiens (Human), UniProt Q14191); experiment: WRN ATPase assay (ADP-Glo); format: biochemical; conditions: WRN enzymatic activity assay
[2] = target: T1, WRN [UniPro: Q14191 (WRN_HUMAN), N500-C946]; experiment: WRN unwinding assay (FORKF DNA, fluorescence); format: biochemical; conditions: Table 14

T1 sequence (Q14191 500-946): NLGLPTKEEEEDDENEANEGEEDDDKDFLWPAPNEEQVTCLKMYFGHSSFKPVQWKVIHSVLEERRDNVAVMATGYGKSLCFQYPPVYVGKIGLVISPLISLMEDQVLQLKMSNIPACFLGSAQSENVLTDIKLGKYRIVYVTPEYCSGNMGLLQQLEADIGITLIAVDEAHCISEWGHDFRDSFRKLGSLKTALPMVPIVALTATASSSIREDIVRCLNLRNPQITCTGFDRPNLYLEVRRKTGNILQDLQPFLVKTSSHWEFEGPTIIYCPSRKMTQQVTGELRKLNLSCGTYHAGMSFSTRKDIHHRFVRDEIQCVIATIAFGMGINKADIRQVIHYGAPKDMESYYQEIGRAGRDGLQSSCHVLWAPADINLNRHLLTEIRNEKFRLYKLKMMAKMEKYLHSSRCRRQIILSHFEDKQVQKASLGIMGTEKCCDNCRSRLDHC

| SMILES | IC50 [1] [nM] | IC50 [2] [nM] |
| --- | --- | --- |
| CCc1c(N2CCN(c3nnc(C(F)F)s3)CC2)c(=O)n2nc(C3=CCOCC3)nc2n1CC(=O)Nc1ccc(C(F)(F)F)cc1Cl [Example 8, N-(2-Chloro-4-(trifluoromethyl)phenyl)-2-(6-(4-(5-(difluoromethyl)-1,3,4-thiadiazol-2-yl)piperazin-1-yl)-2-(3,6-dihydro-2H-pyran-4-yl)-5-ethyl-7-oxo-[1,2,4]triazolo[1,5-a]pyrimidin-4(7H)-yl)acetamide] | > 1000 | > 1000 |
| CCc1c(N2CCN(C(=O)c3ncnc4cn[nH]c34)CC2)c(=O)n2nc(C3=CCOCC3)nc2n1CC(=O)Nc1ccc(C(F)(F)F)cc1Cl [Example 17, 2-(6-(4-(1H-Pyrazolo[4,3-d]pyrimidine-7-carbonyl)piperazin-1-yl)-2-(3,6-dihydro-2H-pyran-4-yl)-5-ethyl-7-oxo-[1,2,4]triazolo[1,5-a]pyrimidin-4(7H)-yl)-N-(2-chloro-4-(trifluoromethyl)phenyl)acetamide] | < 100 | < 100 |
| CCc1c(N2CCN(C(=O)CNC(=O)c3ccccc3F)CC2)c(=O)n2nc(C3=CCOCC3)nc2n1CC(=O)Nc1ccc(C(F)(F)F)nc1Cl [Example 163, N-(2-(4-(4-(2-((2-Chloro-6-(trifluoromethyl)pyridin-3-yl)amino)-2-oxoethyl)-2-(3,6-dihydro-2H-pyran-4-yl)-5-ethyl-7-oxo-4,7-dihydro-[1,2,4]triazolo[1,5-a]pyrimidin-6-yl)piperazin-1-yl)-2-oxoethyl)-2-fluorobenzamide] | < 100 | < 100 |
| CCc1c(N2CCN(C(=O)c3nc4ccccc4cc3O)CC2)c(=O)n2nc(C3=CCOCC3)nc2n1CC(=O)Nc1ccc(C(F)(F)F)cc1Cl [Example 306, N-(2-Chloro-4-(trifluoromethyl)phenyl)-2-(2-(3,6-dihydro-2H-pyran-4-yl)-5-ethyl-6-(4-(3-hydroxyquinoline-2-carbonyl)piperazin-1-yl)-7-oxo-[1,2,4]triazolo[1,5-a]pyrimidin-4(7H)-yl)acetamide] | < 100 | < 100 |
| CCc1c(N2CCN(C(=O)CNC(=O)c3ccccc3OC)CC2)c(=O)n2nc(C3=CCOCC3)nc2n1CC(=O)Nc1ccc(C(F)(F)F)cc1Cl [Example 112, N-(2-(4-(4-(2-((2-Chloro-4-(trifluoromethyl)phenyl)amino)-2-oxoethyl)-2-(3,6-dihydro-2H-pyran-4-yl)-5-ethyl-7-oxo-4,7-dihydro-[1,2,4]triazolo[1,5-a]pyrimidin-6-yl)piperazin-1-yl)-2-oxoethyl)-2-methoxybenzamide] | < 100 | < 100 |
| CCOC(=O)c1cnc2oc(C(=O)N3CCN(c4c(CC)n(CC(=O)Nc5ccc(C(F)(F)F)cc5Cl)c5nc(C6=CCOCC6)nn5c4=O)CC3)cc2c1O [Example 53, Ethyl 2-(4-(4-(2-((2-chloro-4-(trifluoromethyl)phenyl)amino)-2-oxoethyl)-2-(3,6-dihydro-2H-pyran-4-yl)-5-ethyl-7-oxo-4,7-dihydro-[1,2,4]triazolo[1,5-a]pyrimidin-6-yl)piperazine-1-carbonyl)-4-hydroxyfuro[2,3-b]pyridine-5-carboxylate] | < 100 | 100 to 1000 |
| CCc1c(N2CCN(C(=O)CNC(=O)c3cnn(C)c3)CC2)c(=O)n2nc(C3=CCOCC3)nc2n1CC(=O)Nc1ccc(C(F)(F)F)cc1Cl [Example 103, N-(2-(4-(4-(2-((2-Chloro-4-(trifluoromethyl)phenyl)amino)-2-oxoethyl)-2-(3,6-dihydro-2H-pyran-4-yl)-5-ethyl-7-oxo-4,7-dihydro-[1,2,4]triazolo[1,5-a]pyrimidin-6-yl)piperazin-1-yl)-2-oxoethyl)-1-methyl-1H-pyrazole-4-carboxamide] | < 100 | < 100 |
| CCc1c(N2CCN(C(=O)CNC(=O)CC3CCC3)CC2)c(=O)n2nc(C3=CCOCC3)nc2n1CC(=O)Nc1ccc(C(F)(F)F)cc1Cl [Example 272, N-(2-Chloro-4-(trifluoromethyl)phenyl)-2-(6-(4-((2-cyclobutylacetyl)glycyl)piperazin-1-yl)-2-(3,6-dihydro-2H-pyran-4-yl)-5-ethyl-7-oxo-[1,2,4]triazolo[1,5-a]pyrimidin-4(7H)-yl)acetamide] | < 100 | < 100 |
| CCc1c(N2CCN(C(=O)c3nc4ccsc4cc3O)CC2)c(=O)n2nc(C3=CCOCC3)nc2n1CC(=O)Nc1ccc(C(F)(F)F)cc1Cl [Example 305, N-(2-Chloro-4-(trifluoromethyl)phenyl)-2-(2-(3,6-dihydro-2H-pyran-4-yl)-5-ethyl-6-(4-(6-hydroxythieno[3,2-b]pyridine-5-carbonyl)piperazin-1-yl)-7-oxo-[1,2,4]triazolo[1,5-a]pyrimidin-4(7H)-yl)acetamide] | < 100 | < 100 |
| CCc1c(N2CCN(C(=O)C(=O)NC)CC2)c(=O)n2nc(C3=CCOCC3)nc2n1CC(=O)Nc1ccc(C(F)(F)F)cc1Cl [Example 329, 2-(4-(4-(2-((2-Chloro-4-(trifluoromethyl)phenyl)amino)-2-oxoethyl)-2-(3,6-dihydro-2H-pyran-4-yl)-5-ethyl-7-oxo-4,7-dihydro-[1,2,4]triazolo[1,5-a]pyrimidin-6-yl)piperazin-1-yl)-N-methyl-2-oxoacetamide] | 100 to 1000 | 100 to 1000 |
